Tests used:
[1] = target: T1, Proline racemase (Clostridium sticklandii, UniProt Q9L4Q3); assay: Inhibition of N-terminal 6xHis-tagged Clostridium sticklandii ATCC 12662 proline racemase expressed in Escherichia coli BL21(DE3) using L/D-proline as substrate preincubated for 5 mins by circular dichroism-based analysis; parameters: species or system Acetoanaerobium sticklandii
T1 sequence (Q9L4Q3 whole entry): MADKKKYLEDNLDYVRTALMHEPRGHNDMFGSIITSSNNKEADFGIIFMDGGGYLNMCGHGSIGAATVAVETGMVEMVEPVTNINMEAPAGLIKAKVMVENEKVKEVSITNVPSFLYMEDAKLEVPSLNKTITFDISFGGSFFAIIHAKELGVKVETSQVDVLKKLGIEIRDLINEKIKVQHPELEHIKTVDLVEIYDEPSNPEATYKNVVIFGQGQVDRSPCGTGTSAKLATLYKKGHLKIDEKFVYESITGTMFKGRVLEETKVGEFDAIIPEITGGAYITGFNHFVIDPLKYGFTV

[2] = target: T1, Proline racemase; assay: Noncompetitive inhibition of N-terminal 6xHis-tagged Clostridium sticklandii ATCC 12662 proline racemase expressed in Escherichia coli BL21(DE3) using L/D-proline as substrate preincubated for 5 mins by Cornish-Bowden plot analysis; parameters: species or system Acetoanaerobium sticklandii
[3] = target: T2, Serine racemase (Schizosaccharomyces pombe (strain 972 / ATCC 24843) (Fission yeast), UniProt O59791); assay: (§1) Mixed type inhibition of N-terminal 6xHis-tagged recombinant Schizosaccharomyces pombe 972 serine racemase expressed in Escherichia coli BL21(DE3) using L-serine as substrate assessed as enzyme-inhibitor complex preincubated for 2 mins followed by substrate addition by double reciprocal plot analysis
T2 sequence (O59791 whole entry): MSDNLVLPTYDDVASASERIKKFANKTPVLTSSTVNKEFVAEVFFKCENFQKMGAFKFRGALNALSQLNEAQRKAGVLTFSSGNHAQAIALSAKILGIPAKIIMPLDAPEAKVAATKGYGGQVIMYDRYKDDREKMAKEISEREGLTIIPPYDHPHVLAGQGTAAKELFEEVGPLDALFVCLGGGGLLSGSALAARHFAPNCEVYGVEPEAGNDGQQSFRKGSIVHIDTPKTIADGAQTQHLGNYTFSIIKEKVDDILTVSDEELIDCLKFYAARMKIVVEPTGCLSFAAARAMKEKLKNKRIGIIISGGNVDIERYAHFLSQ

[4] = target: T2, Serine racemase; assay: as §1, with “enzyme-substrate-inhibitor” for “enzyme-inhibitor”
[5] = target: T3, Proline racemase (Clostridium sticklandii) (UniProt Q9L4Q3); assay: Inhibition of N-terminal 6xHis-tagged Clostridium sticklandii ATCC 12662 proline racemase expressed in Escherichia coli BL21(DE3) using L/D-proline as substrate at 142.5 mM preincubated for 5 mins by circular dichroism-based analysis; conditions: Acetoanaerobium sticklandii
T3 sequence (whole entry): T1 sequence (Q9L4Q3 whole entry)

[6] = target: T3, Proline racemase (Clostridium sticklandii); assay: Inhibition of Clostridium sticklandii ATCC 12662 proline racemase using L-proline as substrate at 0.36 mM relative to control; conditions: Acetoanaerobium sticklandii
[7] = target: T1, Proline racemase; assay: Competitive inhibition of N-terminal 6xHis-tagged Clostridium sticklandii ATCC 12662 proline racemase expressed in Escherichia coli BL21(DE3) using L/D-proline as substrate; parameters: species or system Acetoanaerobium sticklandii
[8] = target: T3, Proline racemase (Clostridium sticklandii); assay: Inhibition of Clostridium sticklandii ATCC 12662 proline racemase L-proline as substrate at 57 mM relative to control; conditions: Acetoanaerobium sticklandii

## O=C(O)C12CCCN1CCC2
[1]
  IC50: 67 mM
[2]
  Ki: 111 mM

## NC(CO)(CO)C(=O)O
[3]
  Ki: 167 mM
[4]
  Ki: 661 mM

## O=C(O)C12CCC(CC1)N2
[5]
  inhibition: 29%

## O=Cc1ccc[nH]1
[6]
  inhibition: 50%
[7]
  Ki: 5.8 µM
[8]
  inhibition: 98%
